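Step 1: Grow cells in 96-well plates. Step 2: Expose to compound for 48 hours at 5 concentrations. Step 3: Interpolate endpoints linearly; if unreached, use highest concentration. GI50: concentration for 50% inhibition of growth.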 Activity calls are given as the source filed them. Cut-off read from the data, not from the text of the source: active = GI50 up to about 1.1 µM and inactive = higher.
Columns and labels:
Assay in all cases: growth of human tumour cells (NCI), 48 h
[1] = tested on: HT-29
[2] = tested on: MOLT-4
[3] = tested on: RPMI-8226
[4] = tested on: SK-MEL-5
[5] = tested on: SK-OV-3
[6] = tested on: IGROV-1
[7] = tested on: HCT-15
[8] = tested on: COLO 205
[9] = tested on: SNB-75
[10] = tested on: NCI-H23
[11] = tested on: DU-145
[12] = tested on: TK-10
[13] = tested on: PC-3
[14] = tested on: MDA-N
[15] = tested on: SR
[16] = tested on: M14
[17] = tested on: 786-0
[18] = tested on: UACC-62
[19] = tested on: T47D
[20] = tested on: SW-620
[21] = tested on: HOP-62
[22] = tested on: K562
[23] = tested on: CAKI-1
[24] = tested on: HCC 2998
[25] = tested on: MDA-MB-231
[26] = tested on: CCRF-CEM
[27] = tested on: SK-MEL-28
[28] = tested on: KM12
[29] = tested on: OVCAR-8
[30] = tested on: SF-268
[31] = tested on: A549
[32] = tested on: HL-60
[33] = tested on: MCF7
[34] = tested on: RXF 393
[35] = tested on: EKVX
[36] = tested on: SF-295
[37] = tested on: MDA-MB-435
[38] = tested on: LOX IMVI
[39] = tested on: A498
[40] = tested on: HCT-116
[41] = tested on: Hs-578T
[42] = tested on: NCI-H522
[43] = tested on: OVCAR-4
[44] = tested on: Malme-3M
[45] = tested on: OVCAR-5
[46] = tested on: SF-539
[47] = tested on: OVCAR-3
[48] = tested on: ACHN
[49] = tested on: NCI-H460
[50] = tested on: SNB-19
[51] = tested on: NCI-H226
[52] = tested on: SK-MEL-2
[53] = tested on: U-251
[54] = tested on: HOP-92
[55] = tested on: UACC-257
[56] = tested on: UO-31

CC(=O)OC[C@]12CCC3[C@@]4(C)CCCC(C)(C)C4CC[C@@]3(C)C1CC(C1=CC(=O)OC1O)O2 (stereo partly drawn)
GI50 [1]: 0.692 µM (active)
GI50 [2]: 0.252 µM (active)
GI50 [3]: 0.275 µM (active)
GI50 [4]: 1.44 µM (inactive)
GI50 [5]: 1.87 µM (inactive)
GI50 [6]: 1.19 µM (inactive)
GI50 [7]: 0.516 µM
GI50 [8]: 2.25 µM (inactive)
GI50 [9]: 1.8 µM (inactive)
GI50 [10]: 1.39 µM (inactive)
GI50 [11]: 4.07 µM (inactive)
GI50 [12]: 1.75 µM (inactive)
GI50 [13]: 1.32 µM (inactive)
GI50 [14]: 1.16 µM (inactive)
GI50 [15]: 0.259 µM (active)
GI50 [16]: 1.5 µM (inactive)
GI50 [17]: 219 nM (active)
GI50 [18]: 1.53 µM (inactive)
GI50 [19]: 1.32 µM (inactive)
GI50 [20]: 0.375 µM (active)
GI50 [21]: 1.9 µM (inactive)
GI50 [22]: 0.425 µM (active)
GI50 [23]: 1.72 µM (inactive)
GI50 [24]: 1.47 µM (inactive)
GI50 [25]: 1.26 µM (inactive)
GI50 [26]: 0.271 µM (active)
GI50 [27]: 0.512 µM (active)
GI50 [28]: 1.68 µM (inactive)
GI50 [29]: 0.962 µM (active)
GI50 [30]: 1.44 µM (inactive)
GI50 [31]: 1.85 µM (inactive)
GI50 [32]: 0.428 µM (active)
GI50 [33]: 0.726 µM (active)
GI50 [34]: 382 nM (active)
GI50 [35]: 2.44 µM (inactive)

Nc1ccc(C2NC(=O)Cc3c2ccc2ccccc32)cc1 (stereo not drawn)
GI50 [36]: 45.5 µM (inactive)
GI50 [37]: 68.5 µM (inactive)
GI50 [1]: > 100 µM (inactive)
GI50 [2]: > 100 µM (inactive)
GI50 [38]: > 100 µM (inactive)
GI50 [3]: > 100 µM (inactive)
GI50 [4]: 61.8 µM (inactive)
GI50 [5]: > 100 µM (inactive)
GI50 [39]: > 100 µM (inactive)
GI50 [40]: 81.1 µM (inactive)
GI50 [6]: > 100 µM (inactive)
GI50 [7]: 84.1 µM
GI50 [8]: 76.2 µM (inactive)
GI50 [9]: > 100 µM (inactive)
GI50 [10]: > 100 µM (inactive)
GI50 [41]: 46.5 µM (inactive)
GI50 [11]: > 100 µM (inactive)
GI50 [12]: > 100 µM (inactive)
GI50 [42]: > 100 µM (inactive)
GI50 [43]: 40.3 µM (inactive)
GI50 [44]: 47 µM (inactive)
GI50 [13]: 45.8 µM (inactive)
GI50 [14]: 67.5 µM (inactive)
GI50 [45]: > 100 µM (inactive)
GI50 [46]: 90.6 µM (inactive)
GI50 [15]: > 100 µM (inactive)
GI50 [16]: 89.9 µM (inactive)
GI50 [47]: 26.1 µM (inactive)
GI50 [48]: 58.1 µM (inactive)
GI50 [18]: 66.1 µM (inactive)
GI50 [19]: 34.1 µM (inactive)
GI50 [20]: > 100 µM (inactive)
GI50 [21]: 56.2 µM (inactive)
GI50 [22]: > 100 µM (inactive)
GI50 [23]: 79.4 µM (inactive)
GI50 [49]: 71.1 µM (inactive)
GI50 [50]: > 100 µM (inactive)
GI50 [51]: 34.4 µM (inactive)
GI50 [24]: 69 µM (inactive)
GI50 [26]: 80 µM (inactive)
GI50 [27]: > 100 µM (inactive)
GI50 [52]: > 100 µM (inactive)
GI50 [53]: > 100 µM (inactive)
GI50 [54]: > 100 µM (inactive)
GI50 [28]: > 100 µM (inactive)
GI50 [55]: > 100 µM (inactive)
GI50 [29]: 56.1 µM (inactive)
GI50 [30]: 89.5 µM (inactive)
GI50 [56]: 32.1 µM (inactive)
GI50 [31]: 33.2 µM (inactive)
GI50 [32]: 35.2 µM (inactive)
GI50 [33]: 76 µM (inactive)
GI50 [35]: 84.7 µM (inactive)

Source: ChEMBL document CHEMBL1201862, “PubChem BioAssay data set” (2004)
